Results as given in PMC6037852, “Design of Diarylheptanoid Derivatives as Dual Inhibitors Against Class IIa Histone Deacetylase and β-amyloid Aggregation” (Frontiers in Pharmacology, 2018).

How the values were obtained:
HDAC5 = HDAC5 (Homo sapiens, UniProt Q9UQL6); assay: HDAC fluorometric activity assay, HDAC5; conditions: IC50 Class IIa HDAC5, fluorogenic HDAC class IIa substrate 10 μM
Procedure: (§1) Enzyme, inhibitors and substrate were diluted with HDAC buffer (15 mM Tris-HCl pH 8.1, 0.25 mM EDTA, 250 mM NaCl, 10% v:v glycerol). Briefly, 10 μL diluted HDAC, i.e., HeLa nuclear extract (Enzo), HDAC6 (BPS), HDAC4, HDAC5 (BPS), HDAC7 (BPS) and HDAC9 (BPS), as well as 50 μL of testing compounds at different concentrations were added to each well of a 96-well microtiter plate and pre-incubated at 30°C for 5 min. […] The fluorescence in wells without test compounds (0.1% DMSO, negative control) was set as 100% enzymatic activity and the fluorescence in wells with enzyme eliminated was set as 0% enzymatic activity. The fluorescence ratio of test compounds to negative control was defined as percentage of remaining enzyme activity. The IC50 values were calculated by linear regression of the data. All experiments were performed in triplicate.

HDAC6 = molecular target: T1, HDAC6 (Homo sapiens, UniProt Q9UBN7); assay: HDAC fluorometric activity assay, HDAC6
T1 sequence (Q9UBN7 1-1215): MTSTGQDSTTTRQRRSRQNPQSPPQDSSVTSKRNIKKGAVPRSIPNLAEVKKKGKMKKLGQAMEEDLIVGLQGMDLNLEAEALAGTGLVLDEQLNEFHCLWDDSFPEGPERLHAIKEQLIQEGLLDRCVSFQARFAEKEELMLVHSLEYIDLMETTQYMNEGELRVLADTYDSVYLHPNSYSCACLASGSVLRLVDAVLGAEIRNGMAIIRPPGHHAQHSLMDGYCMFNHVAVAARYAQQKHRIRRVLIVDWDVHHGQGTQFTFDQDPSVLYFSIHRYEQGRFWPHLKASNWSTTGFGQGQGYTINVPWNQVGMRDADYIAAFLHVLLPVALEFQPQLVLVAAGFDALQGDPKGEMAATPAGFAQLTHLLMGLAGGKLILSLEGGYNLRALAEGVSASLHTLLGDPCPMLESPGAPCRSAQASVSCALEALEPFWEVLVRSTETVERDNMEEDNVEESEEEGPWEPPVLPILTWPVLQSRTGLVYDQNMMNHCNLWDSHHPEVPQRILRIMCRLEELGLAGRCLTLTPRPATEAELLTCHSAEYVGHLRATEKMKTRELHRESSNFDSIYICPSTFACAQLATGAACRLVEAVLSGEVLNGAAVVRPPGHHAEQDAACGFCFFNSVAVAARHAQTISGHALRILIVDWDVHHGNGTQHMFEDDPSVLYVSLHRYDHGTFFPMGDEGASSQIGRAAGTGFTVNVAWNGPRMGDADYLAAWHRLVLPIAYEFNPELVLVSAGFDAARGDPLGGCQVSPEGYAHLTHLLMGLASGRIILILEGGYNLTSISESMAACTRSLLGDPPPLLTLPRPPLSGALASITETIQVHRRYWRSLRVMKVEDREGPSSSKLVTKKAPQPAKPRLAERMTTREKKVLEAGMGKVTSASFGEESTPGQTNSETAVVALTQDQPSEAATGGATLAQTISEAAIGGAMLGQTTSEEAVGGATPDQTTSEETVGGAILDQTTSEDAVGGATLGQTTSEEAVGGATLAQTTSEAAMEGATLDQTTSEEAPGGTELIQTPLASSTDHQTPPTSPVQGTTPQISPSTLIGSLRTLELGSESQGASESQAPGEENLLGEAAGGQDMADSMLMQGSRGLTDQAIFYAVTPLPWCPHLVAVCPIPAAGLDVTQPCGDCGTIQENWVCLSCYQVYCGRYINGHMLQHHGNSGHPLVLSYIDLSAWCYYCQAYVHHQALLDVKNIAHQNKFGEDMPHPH
Procedure: as §1

HDAC7 = molecular target: T2, HDAC7 (Homo sapiens, UniProt Q8WUI4); assay: HDAC fluorometric activity assay, HDAC7; conditions: IC50 Class IIa HDAC7, fluorogenic HDAC class IIa substrate 10 μM
T2 sequence (Q8WUI4 1-952): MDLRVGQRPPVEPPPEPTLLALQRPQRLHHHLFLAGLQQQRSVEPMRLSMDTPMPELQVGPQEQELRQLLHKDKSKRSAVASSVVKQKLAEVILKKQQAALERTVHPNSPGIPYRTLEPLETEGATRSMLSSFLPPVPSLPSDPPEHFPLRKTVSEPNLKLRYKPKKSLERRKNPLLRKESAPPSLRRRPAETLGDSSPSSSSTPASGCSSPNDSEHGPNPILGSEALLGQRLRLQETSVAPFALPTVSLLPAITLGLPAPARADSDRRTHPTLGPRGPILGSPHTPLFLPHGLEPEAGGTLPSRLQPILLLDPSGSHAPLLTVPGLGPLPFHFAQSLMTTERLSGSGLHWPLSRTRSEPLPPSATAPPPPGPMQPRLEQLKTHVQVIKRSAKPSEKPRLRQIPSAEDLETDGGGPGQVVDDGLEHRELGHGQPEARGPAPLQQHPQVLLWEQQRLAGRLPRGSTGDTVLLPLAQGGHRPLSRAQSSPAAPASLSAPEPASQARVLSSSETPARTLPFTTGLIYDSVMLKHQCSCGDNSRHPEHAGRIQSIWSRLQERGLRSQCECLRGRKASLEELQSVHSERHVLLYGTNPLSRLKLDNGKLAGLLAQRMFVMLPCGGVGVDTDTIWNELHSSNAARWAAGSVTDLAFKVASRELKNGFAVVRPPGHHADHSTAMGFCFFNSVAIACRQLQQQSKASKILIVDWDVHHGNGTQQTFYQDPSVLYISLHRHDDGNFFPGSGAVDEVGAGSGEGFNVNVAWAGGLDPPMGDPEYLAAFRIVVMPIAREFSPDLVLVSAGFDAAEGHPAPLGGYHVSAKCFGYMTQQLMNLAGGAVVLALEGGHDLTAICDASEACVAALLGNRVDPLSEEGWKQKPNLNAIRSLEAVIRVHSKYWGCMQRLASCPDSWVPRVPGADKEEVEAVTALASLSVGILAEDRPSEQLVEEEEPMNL
Procedure: as §1

HDAC9 = HDAC9 (Homo sapiens, UniProt Q9UKV0); assay: HDAC fluorometric activity assay, HDAC9
Sequence of HDAC9 (Q9UKV0 whole entry): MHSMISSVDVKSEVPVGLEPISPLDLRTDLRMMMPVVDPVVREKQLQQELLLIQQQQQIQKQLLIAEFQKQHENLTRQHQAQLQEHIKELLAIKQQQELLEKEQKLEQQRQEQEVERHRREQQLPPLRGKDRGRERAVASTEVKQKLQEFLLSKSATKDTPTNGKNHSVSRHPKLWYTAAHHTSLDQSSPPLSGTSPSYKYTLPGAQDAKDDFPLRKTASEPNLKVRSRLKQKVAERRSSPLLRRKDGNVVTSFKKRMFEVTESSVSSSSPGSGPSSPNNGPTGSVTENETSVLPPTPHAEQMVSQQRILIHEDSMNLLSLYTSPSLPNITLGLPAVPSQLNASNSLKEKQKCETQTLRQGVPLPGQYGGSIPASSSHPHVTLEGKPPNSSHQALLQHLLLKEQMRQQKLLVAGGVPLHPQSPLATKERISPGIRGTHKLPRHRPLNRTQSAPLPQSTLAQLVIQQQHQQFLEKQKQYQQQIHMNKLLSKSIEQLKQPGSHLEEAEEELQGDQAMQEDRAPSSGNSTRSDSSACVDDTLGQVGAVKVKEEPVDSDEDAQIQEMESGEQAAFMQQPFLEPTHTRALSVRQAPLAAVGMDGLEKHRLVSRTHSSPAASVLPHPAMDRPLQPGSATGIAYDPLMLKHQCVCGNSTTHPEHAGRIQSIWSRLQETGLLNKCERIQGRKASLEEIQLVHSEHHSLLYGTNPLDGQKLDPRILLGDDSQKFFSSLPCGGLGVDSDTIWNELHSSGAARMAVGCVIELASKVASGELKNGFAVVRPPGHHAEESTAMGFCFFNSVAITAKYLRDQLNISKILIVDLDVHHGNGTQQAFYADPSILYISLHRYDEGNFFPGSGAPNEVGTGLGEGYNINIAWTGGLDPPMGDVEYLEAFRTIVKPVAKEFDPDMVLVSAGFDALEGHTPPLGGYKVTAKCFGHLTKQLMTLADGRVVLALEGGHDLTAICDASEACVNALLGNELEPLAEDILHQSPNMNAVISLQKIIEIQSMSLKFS
Procedure: as §1

HeLa nuclear HDACs = assay: HDAC fluorometric activity assay, HeLa nuclear extract; conditions: read-out: IC50 HeLa Nuclear HDACs; Boc-Lys(Ac)-AMC 10 μM
Procedure: as §1

Sequence of HDAC5 (Q9UQL6 whole entry): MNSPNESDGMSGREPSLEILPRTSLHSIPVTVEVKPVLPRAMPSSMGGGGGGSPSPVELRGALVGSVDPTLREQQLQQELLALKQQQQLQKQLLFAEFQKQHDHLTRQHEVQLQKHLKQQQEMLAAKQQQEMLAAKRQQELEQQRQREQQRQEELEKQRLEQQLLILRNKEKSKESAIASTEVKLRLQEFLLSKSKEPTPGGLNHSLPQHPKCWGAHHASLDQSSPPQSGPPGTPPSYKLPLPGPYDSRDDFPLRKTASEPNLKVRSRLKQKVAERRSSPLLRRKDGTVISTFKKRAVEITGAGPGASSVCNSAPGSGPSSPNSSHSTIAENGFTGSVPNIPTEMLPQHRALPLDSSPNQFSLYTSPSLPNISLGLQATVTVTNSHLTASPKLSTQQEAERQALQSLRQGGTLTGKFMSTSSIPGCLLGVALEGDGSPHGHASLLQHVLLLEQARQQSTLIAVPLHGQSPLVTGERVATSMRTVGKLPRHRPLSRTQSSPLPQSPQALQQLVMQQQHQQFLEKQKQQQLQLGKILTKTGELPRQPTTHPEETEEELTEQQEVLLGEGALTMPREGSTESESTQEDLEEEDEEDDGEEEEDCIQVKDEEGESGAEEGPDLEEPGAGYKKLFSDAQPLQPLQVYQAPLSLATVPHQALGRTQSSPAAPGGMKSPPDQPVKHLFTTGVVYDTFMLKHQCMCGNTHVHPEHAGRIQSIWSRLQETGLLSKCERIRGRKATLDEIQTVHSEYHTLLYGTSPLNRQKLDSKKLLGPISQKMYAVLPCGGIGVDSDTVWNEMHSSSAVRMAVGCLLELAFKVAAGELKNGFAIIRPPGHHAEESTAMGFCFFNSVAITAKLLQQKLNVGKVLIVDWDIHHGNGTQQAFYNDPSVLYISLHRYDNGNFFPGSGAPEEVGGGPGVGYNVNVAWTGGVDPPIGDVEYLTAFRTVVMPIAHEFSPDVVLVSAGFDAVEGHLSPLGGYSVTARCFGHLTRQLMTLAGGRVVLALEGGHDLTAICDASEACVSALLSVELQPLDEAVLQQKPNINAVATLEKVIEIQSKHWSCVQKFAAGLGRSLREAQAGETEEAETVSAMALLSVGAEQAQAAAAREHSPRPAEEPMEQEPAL

SMILES | IC50 (HDAC5) [µM] | IC50 (HDAC6) [µM] | IC50 (HDAC7) [µM] | IC50 (HDAC9) [µM] | IC50 (HeLa nuclear HDACs) [µM]
O=C(/C=C/c1ccccc1)CCCCc1ccccc1 [Compound 4a] | > 40 | > 40 | > 40 | > 40 | > 40
O=C(/C=C/c1ccc(O)c(F)c1)CCCCc1ccccc1 [Compound 4f] | > 40 | > 40 | > 40 | > 40 | > 40
O=C(/C=C/c1cc(O)c(O)c(O)c1)CCCCc1ccccc1 [Compound 4j] | 7.1 ± 0.2 | 11.9 ± 0.2 | 3.8 ± 0.4 | 15.4 ± 1.8 | > 40
O=C(/C=C/c1ccc(O)c(Br)c1)CCCCc1ccccc1 [Compound 4h] | > 40 | > 40 | > 40 | > 40 | > 40
O=C(/C=C/c1ccc(O)cc1)CCCCc1ccccc1 [Compound 4b] | > 40 | > 40 | > 40 | > 40 | > 40
O=C(/C=C/c1ccc(O)c(O)c1)CCCCc1ccccc1 [Compound 4c] | 15.9 ± 1.5 | 18.3 ± 0.9 | 8.4 ± 0.3 | 17.6 ± 0.3 | > 40
O=C(/C=C/c1ccc(O)c([N+](=O)[O-])c1)CCCCc1ccccc1 [Compound 4i] | 36.1 ± 3.7 | > 40 | 32.7 ± 2.1 | > 40 | > 40
O=C(/C=C/c1cccc(O)c1)CCCCc1ccccc1 [Compound 4d] | > 40 | > 40 | > 40 | > 40 | > 40
O=C(/C=C/c1cccc(O)c1O)CCCCc1ccccc1 [Compound 4e] | 14.6 ± 0.2 | 29.4 ± 1.5 | 8.6 ± 1 | 18.1 ± 0.4 | > 40
COc1cc(/C=C/C(=O)CCCCc2ccccc2)ccc1O [Compound 4k] | > 40 | > 40 | > 40 | > 40 | > 40
O=C(/C=C/c1ccc(O)c(Cl)c1)CCCCc1ccccc1 [Compound 4g] | > 40 | > 40 | > 40 | > 40 | > 40

Other lines, results leading:

IC50 (HDAC5) [µM] | IC50 (HDAC6) [µM] | IC50 (HDAC7) [µM] | IC50 (HDAC9) [µM] | IC50 (HeLa nuclear HDACs) [µM] | SMILES
> 40 | > 40 | > 40 | > 40 | > 40 | COc1cc(CCC(=O)CCCCc2ccccc2)ccc1O [Compound 5i]
> 40 | > 40 | > 40 | > 40 | > 40 | O=C(CCCCc1ccccc1)CCc1cccc(O)c1 [Compound 5d]
7.5 ± 0.3 | > 40 | 7.4 ± 1.6 | 17.3 ± 3.2 | > 40 | O=C(CCCc1ccccc1)CCc1ccc(O)c(O)c1 [Compound 8d]
3.8 ± 0.1 | > 40 | 4.3 ± 0.5 | 5.3 ± 0.3 | > 40 | O=C(CCCCc1ccccc1)CCc1ccc(O)c(O)c1 [Compound 5c]
13.1 ± 4.4 | 26.2 ± 4.3 | 9.6 ± 0.2 | 18.4 ± 0.6 | > 40 | O=C(/C=C/c1ccc(O)c(O)c1)c1ccccc1 [Compound 7a]
> 40 | > 40 | > 40 | > 40 | > 40 | O=C(CCCCc1ccccc1)CCc1ccc(O)c(Br)c1 [Compound 5h]
> 40 | > 40 | > 40 | > 40 | > 40 | O=C(CCCCc1ccccc1)CCc1ccc(O)cc1 [Compound 5b]
9 ± 0.2 | > 40 | 13.7 ± 0.7 | 37.1 ± 0.9 | > 40 | O=C(CCc1ccc(O)c(O)c1)Cc1ccccc1 [Compound 8b]
8.2 ± 0.1 | > 40 | 8.9 ± 0.4 | 33.8 ± 3.8 | > 40 | O=C(CCc1ccccc1)CCc1ccc(O)c(O)c1 [Compound 8c]
> 40 | > 40 | > 40 | > 40 | > 40 | O=C(CCCCc1ccccc1)CCc1ccc(O)c(F)c1 [Compound 5f]
> 40 | > 40 | 30.7 ± 0.7 | > 40 | > 40 | O=C(CCCCc1ccccc1)CCc1ccc(O)c(Cl)c1 [Compound 5g]
15.6 ± 0.4 | 34.5 ± 2.2 | 13.6 ± 1.1 | 36.8 ± 0.7 | > 40 | O=C(/C=C/c1ccc(O)c(O)c1)CCc1ccccc1 [Compound 7c]
> 40 | > 40 | > 40 | > 40 | > 40 | O=C(CCCCc1ccccc1)CCc1ccccc1 [Compound 5a]
6.2 ± 0.4 | > 40 | 12 ± 1 | 14.2 ± 1.6 | > 40 | O=C(CCc1ccc(O)c(O)c1)c1ccccc1 [Compound 8a]
13.7 ± 0.8 | 37.2 ± 1.2 | 15.4 ± 3 | 29.2 ± 1.7 | > 40 | O=C(/C=C/c1ccc(O)c(O)c1)Cc1ccccc1 [Compound 7b]
12.6 ± 2.3 | 37.5 ± 1.6 | 9.4 ± 0.2 | 17.3 ± 0.1 | > 40 | O=C(/C=C/c1ccc(O)c(O)c1)CCCc1ccccc1 [Compound 7d]
4.8 ± 0.4 | > 40 | 8.7 ± 0.7 | 9.3 ± 0.8 | > 40 | O=C(CCCCc1ccccc1)CCc1cccc(O)c1O [Compound 5e]
